Experiments:
[1] = tested on: large crabgrass; assay: Test B pre-/postemergence herbicide test; assay type: in vivo, Digitaria sanguinalis; conditions: for Crabgrass, Large plant response rating: postemergence, visual rating
Procedure, shortened: (§1)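 Flooded paddy rice and barnyardgrass were treated at the 2-leaf stage; upland plantings received compound either on sown seed or on 1- to 4-leaf seedlings. All were kept 13–15 days in a greenhouse and scored visually, 0–100, relative to untreated plants.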

[2] = tested on: rice; assay: Test B flooded paddy test; assay type: in vivo, Oryza sativa; conditions: 1000 g ai/ha, visual rating, scale 0 to 100 (0 no effect, 100 complete control), 13 to 15 days
Procedure, shortened: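 After treating 2-leaf paddy plants or 2–18 cm postemergence plants (1 to 4 leaves) with formulated chemical, researchers kept them in a greenhouse for 13–15 days. Effects were judged visually versus controls: 0 indicates none, 100 total control.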

[3] = tested on: wheat; assay: Test B postemergence herbicide test; assay type: in vivo, Triticum aestivum; parameters: key to Wheat plant response rating: 0 = no effect, 100 = complete control; conditions: scale 0 (no effect) to 100 (complete control); for Wheat plant response rating: postemergence, visual rating
Procedure, shortened: (§2)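 Postemergence plants were sprayed with formulated test chemicals at 2 to 18 cm height (1- to 4-leaf stage); paddy species were grown to the 2-leaf stage. After 13 to 15 days in a greenhouse, injury was rated visually against untreated controls on a 0–100 scale (0 = no effect, 100 = complete control).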

[4] = tested on: Surinam grass; assay: Test B pre-/postemergence herbicide test; assay type: in vivo, Urochloa decumbens; conditions: for Surinam Grass plant response rating: postemergence, visual rating
Procedure, shortened: as §1

[5] = tested on: cocklebur; assay: Test B pre-/postemergence herbicide test; assay type: in vivo, Xanthium strumarium; conditions: for Cocklebur plant response rating: postemergence, visual rating
Procedure, shortened: (§3)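 Test chemicals in a non-phytotoxic solvent mixture with surfactant were applied preemergence to seeded species and postemergence to plants 2-18 cm tall (1- to 4-leaf stage); rice and barnyardgrass were also tested in a flooded paddy at the 2-leaf stage. Visual rating versus controls after 13-15 days in greenhouse, scale 0 (no effect) to 100 (complete control).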

[6] = tested on: morningglory; assay: Test B pre-/postemergence herbicide test; assay type: in vivo, Ipomoea coccinea; conditions: for Morningglory plant response rating: postemergence, visual rating
Procedure, shortened: as §3

[7] = tested on: pigweed; assay: Test B pre-/postemergence herbicide test; assay type: in vivo, Amaranthus retroflexus; conditions: for Pigweed plant response rating: postemergence, visual rating
Procedure, shortened: as §1

[8] = tested on: ducksalad; assay: Test B flooded paddy test; assay type: in vivo, Heteranthera limosa; conditions: 1000 g ai/ha, visual rating, scale 0 to 100 (0 no effect, 100 complete control), 13 to 15 days
Procedure, shortened: (§4)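 Paddy species grown to the 2-leaf stage under flooding; blackgrass sprayed postemergence at 2–18 cm (1- to 4-leaf stage). Plants kept in a greenhouse for 13 to 15 days, then visually rated against controls on 0 (no effect) to 100 (complete control).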

[9] = tested on: giant foxtail; assay: Test B pre-/postemergence herbicide test; assay type: in vivo, Setaria faberi; conditions: for Foxtail, Giant plant response rating: postemergence, visual rating
Procedure, shortened: as §1

[10] = tested on: wild oat; assay: Test B postemergence herbicide test; assay type: in vivo, Avena fatua; conditions: scale 0 (no effect) to 100 (complete control); for Oat, Wild plant response rating: postemergence, visual rating
Procedure, shortened: as §2

[11] = tested on: blackgrass; assay: Test B postemergence herbicide test; assay type: in vivo, Alopecurus myosuroides; conditions: scale 0 (no effect) to 100 (complete control); for Blackgrass plant response rating: postemergence, visual rating
Procedure, shortened: as §4

[12] = tested on: corn; assay: Test B pre-/postemergence herbicide test; assay type: in vivo, Zea mays; conditions: for Corn plant response rating: postemergence, visual rating
Procedure, shortened: as §1

[13] = tested on: barnyardgrass; assay: Test B pre-/postemergence herbicide test; assay type: in vivo, Echinochloa crus-galli; conditions: for Barnyardgrass plant response rating: postemergence, visual rating
Procedure, shortened: as §3

[14] = tested on: lambsquarters; assay: Test B pre-/postemergence herbicide test; assay type: in vivo, Chenopodium album; conditions: for Lambsquarters plant response rating: postemergence, visual rating
Procedure, shortened: as §1

[15] = tested on: barnyardgrass; assay: Test B flooded paddy test; assay type: in vivo, Echinochloa crus-galli; conditions: 1000 g ai/ha, visual rating, scale 0 to 100 (0 no effect, 100 complete control), 13 to 15 days
Procedure, shortened: as §4

[16] = tested on: small flower umbrella sedge; assay: Test B flooded paddy test; assay type: in vivo, Cyperus difformis; conditions: 1000 g ai/ha, visual rating, scale 0 to 100 (0 no effect, 100 complete control), 13 to 15 days
Procedure, shortened: as §4

[17] = tested on: velvetleaf; assay: Test B pre-/postemergence herbicide test; assay type: in vivo, Abutilon theophrasti; conditions: for Velvetleaf plant response rating: postemergence, visual rating
Procedure, shortened: as §1

[18] = tested on: rice; assay: Test B pre-/postemergence herbicide test; assay type: in vivo, Oryza sativa; conditions: preemergence
Procedure, shortened: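 Evaluation is visual, comparing treated with control plants on a scale where 0 means no effect and 100 means full control. Treatments were preemergence, or postemergence on seedlings 2–18 cm tall, and held 13–15 days in the greenhouse.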

[19] = 500 g ai/ha, visual rating 0-100, 0 no effect, 100 complete control, preemergence
[20] = Postemergence, 500 g ai/ha, visual rating after 13 to 15 days, scale 0 (no effect) to 100 (complete control)
[21] = 125 g ai/ha, scale 0 (no effect) to 100 (complete control)
[22] = preemergence, 125 g ai/ha, 0 to 100 scale, 0 is no effect, 100 is complete control
[23] = Postemergence, 500 g ai/ha, visual rating after 13 to 15 days
[24] = 500 g ai/ha, visual rating 0-100, 0 no effect, 100 complete control
[25] = 125 g ai/ha, 0 = no effect, 100 = complete control, preemergence
[26] = 500 g ai/ha, scale 0 (no effect) to 100 (complete control)

CCn1nc(C(C)(C)C)cc1C(=O)Nc1ccc(C)c(C(=O)OC(C)C)c1 [Compound 100]
Plant response rating, Crabgrass, Large [1, 19]: 0
Plant response rating, Crabgrass, Large [1, 20]: 0
Crabgrass, Large plant response rating [1, 21]: 0
Plant response rating, Crabgrass, Large [1, 22]: 0
Rice plant response rating [2]: 0
Plant response rating, Wheat [3, 23]: 10
Wheat plant response rating ([3]; 125 g ai/ha): 10
Plant response rating, Surinam Grass [4, 19]: 0
Plant response rating, Surinam Grass [4, 20]: 20
Surinam Grass plant response rating [4, 21]: 0
Plant response rating, Surinam Grass [4, 22]: 0
Plant response rating, Cocklebur [5, 19]: 0
Plant response rating, Cocklebur [5, 20]: 0
Cocklebur plant response rating [5, 21]: 0
Plant response rating, Cocklebur [5, 22]: 0
Plant response rating, Morningglory [6, 19]: 0
Plant response rating, Morningglory [6, 20]: 0
Morningglory plant response rating [6, 21]: 0
Plant response rating, Morningglory [6, 22]: 0
Plant response rating, Pigweed [7, 19]: 0
Plant response rating, Pigweed [7, 20]: 60
Pigweed plant response rating [7, 21]: 0
Plant response rating, Pigweed [7, 22]: 0
Ducksalad plant response rating [8]: 0
Plant response rating, Foxtail, Giant [9, 19]: 0
Plant response rating, Foxtail, Giant [9, 20]: 0
Foxtail, Giant plant response rating [9, 21]: 0
Plant response rating, Foxtail, Giant [9, 22]: 0
Plant response rating, Oat, Wild [10, 23]: 40
Oat, Wild plant response rating ([10]; 125 g ai/ha): 20
Plant response rating, Blackgrass [11, 23]: 30
Blackgrass plant response rating ([11]; 125 g ai/ha): 10
Plant response rating, Corn [12, 19]: 0
Plant response rating, Corn [12, 20]: 0
Corn plant response rating [12, 21]: 0
Plant response rating, Corn [12, 22]: 0
Plant response rating, Barnyardgrass [13, 19]: 0
Plant response rating, Barnyardgrass [13, 20]: 0
Barnyardgrass plant response rating [13, 21]: 0
Plant response rating, Barnyardgrass [13, 22]: 0
Plant response rating, Lambsquarters [14, 19]: 0
Plant response rating, Lambsquarters [14, 20]: 50
Lambsquarters plant response rating [14, 21]: 0
Plant response rating, Lambsquarters [14, 22]: 0
Barnyardgrass plant response rating [15]: 0
Sedge, Umbrella plant response rating [16]: 0
Plant response rating, Velvetleaf [17, 19]: 0
Plant response rating, Velvetleaf [17, 20]: 0
Velvetleaf plant response rating [17, 21]: 0
Plant response rating, Velvetleaf [17, 22]: 0
Plant response rating, Rice [18, 24]: 0
Plant response rating, Rice ([18]; 125 g ai/ha, 0 to 100 scale, 0 is no effect, 100 is complete control): 0

CCCc1nn(C(C)(C)C)cc1C(=O)Nc1cccc(C(=O)N(CC)CC)c1 [Compound 185]
Crabgrass, Large plant response rating (0 to 100 scale) [1, 25]: 0
Plant response rating, Crabgrass, Large [1, 19]: 50
Crabgrass, Large plant response rating [1, 21]: 20
Crabgrass, Large plant response rating [1, 26]: 40
Rice plant response rating [2]: 0
Wheat plant response rating ([3]; 125 g ai/ha): 0
Wheat plant response rating ([3]; 500 g ai/ha): 10
Surinam Grass plant response rating (0 to 100 scale) [4, 25]: 10
Plant response rating, Surinam Grass [4, 19]: 20
Surinam Grass plant response rating [4, 21]: 20
Surinam Grass plant response rating [4, 26]: 30
Cocklebur plant response rating (0 to 100 scale) [5, 25]: 0
Plant response rating, Cocklebur [5, 19]: 0
Cocklebur plant response rating [5, 21]: 20
Cocklebur plant response rating [5, 26]: 50
Morningglory plant response rating (0 to 100 scale) [6, 25]: 0
Plant response rating, Morningglory [6, 19]: 50
Morningglory plant response rating [6, 21]: 40
Morningglory plant response rating [6, 26]: 70
Pigweed plant response rating (0 to 100 scale) [7, 25]: 0
Plant response rating, Pigweed [7, 19]: 100
Pigweed plant response rating [7, 21]: 60
Pigweed plant response rating [7, 26]: 80
Ducksalad plant response rating [8]: 0
Foxtail, Giant plant response rating (0 to 100 scale) [9, 25]: 0
Plant response rating, Foxtail, Giant [9, 19]: 70
Foxtail, Giant plant response rating [9, 21]: 20
Foxtail, Giant plant response rating [9, 26]: 30
Oat, Wild plant response rating ([10]; 125 g ai/ha): 10
Oat, Wild plant response rating ([10]; 500 g ai/ha): 30
Blackgrass plant response rating ([11]; 125 g ai/ha): 0
Blackgrass plant response rating ([11]; 500 g ai/ha): 0
Corn plant response rating (0 to 100 scale) [12, 25]: 0
Plant response rating, Corn [12, 19]: 0
Corn plant response rating [12, 21]: 20
Corn plant response rating [12, 26]: 30
Barnyardgrass plant response rating (0 to 100 scale) [13, 25]: 0
Plant response rating, Barnyardgrass [13, 19]: 70
Barnyardgrass plant response rating [13, 21]: 30
Barnyardgrass plant response rating [13, 26]: 50
Lambsquarters plant response rating (0 to 100 scale) [14, 25]: 20
Plant response rating, Lambsquarters [14, 19]: 80
Lambsquarters plant response rating [14, 21]: 60
Lambsquarters plant response rating [14, 26]: 70
Barnyardgrass plant response rating [15]: 0
Sedge, Umbrella plant response rating [16]: 60
Velvetleaf plant response rating (0 to 100 scale) [17, 25]: 10
Plant response rating, Velvetleaf [17, 19]: 50
Velvetleaf plant response rating [17, 21]: 30
Velvetleaf plant response rating [17, 26]: 50
Rice plant response rating (0 to 100 scale) ([18]; 125 g ai/ha, 0 = no effect, 100 = complete control): 0
Plant response rating, Rice [18, 24]: 0

— patent US20060069132A1, “Azolecarboxamide herbicides” (priority 2004, published 2006)
